Usually IC50 stands for the concentration needed to halve the response being measured.

This passage reports IC50 results from patent publication US20250145665A1, “MACROCYCLIC PEPTIDES USEFUL AS MODULATORS OF TNF ALPHA” (Bristol-Myers Squibb Company, priority 2023, published 2025).

Each structure is given as a SMILES string. Starred links: 1 amine or outer side, 2 acyl side, 3 side chain; linkers in the order of their positions; H or OH if unused. Positions of bridges follow the written chain, without caps; N, C: chain ends. Non-standard residues stand in square brackets, D forms with d. Residues, ends and D or L forms follow the SMILES beside them. *: point of attachment. Bip(4'-NHCO-C6H4-3-CH2COOH) = N[C@@H](Cc1ccc(-c2ccc(NC(=O)c3cccc(CC(=O)O)c3)cc2)cc1)C(=O)O; Bip(4'-NHCO-C6H4-4-CH2COOH) = N[C@@H](Cc1ccc(-c2ccc(NC(=O)c3ccc(CC(=O)O)cc3)cc2)cc1)C(=O)O; dArg(Nω-CH2C6H4-3-CH2Gua) = N=C(N)NCc1cccc(CNC(=N)NCCC[C@@H](N)C(=O)O)c1; Bip(4'-NH) = O=C([C@H](Cc1ccc(-c2ccc(N[*:3])cc2)cc1)N[*:1])[*:2]; dArg(ω-(3-HO-benzyl)) = N=C(NCCC[C@@H](N)C(=O)O)NCc1cccc(O)c1; Indazole3carbonyl(1-CH2COOH) = O=C(O)Cn1nc(C(=O)*)c2ccccc21; Bip(4'-COOH) = N[C@@H](Cc1ccc(-c2ccc(C(=O)O)cc2)cc1)C(=O)O; Indole3carbonyl(1-CH2COOH) = O=C(O)Cn1cc(C(=O)*)c2ccccc21; Ala(imidazol-2-yl) = N[C@@H](Cc1ncc[nH]1)C(=O)O; Ala(morpholin-4-yl) = N[C@@H](CN1CCOCC1)C(=O)O; Benzoyl(3-OCH2COOH) = O=C(O)COc1cccc(C(=O)*)c1; Bip = N[C@@H](Cc1ccc(-c2ccccc2)cc1)C(=O)O; 2Pal = N[C@@H](Cc1ccccn1)C(=O)O; Tic = O=C(O)[C@@H]1Cc2ccccc2CN1; Cha = N[C@@H](CC1CCCCC1)C(=O)O; Sar = CNCC(=O)O

TNFα, sequence (P01375 77-233 limits assumed): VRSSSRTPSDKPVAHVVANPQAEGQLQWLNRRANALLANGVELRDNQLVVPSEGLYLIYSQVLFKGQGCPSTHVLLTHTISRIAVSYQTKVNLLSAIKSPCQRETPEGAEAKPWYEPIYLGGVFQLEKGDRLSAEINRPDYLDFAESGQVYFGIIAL

One test addresses TNFα (Homo sapiens, UniProt P01375). Nature of the test: TNF-Induced HEK-Blue Assay. The class given is cell-based.
Settings: not given
`CC(C)C[C@@H]1NC(=O)[C@H](Cc2ncc[nH]2)NC(=O)[C@H](C(C)C)NC(=O)[C@@H]2CCCN2C(=O)[C@H](C(C)C)NC(=O)[C@@H](CCCNC(=N)NCc2cccc(CNC(=N)N)c2)NC(=O)[C@H](CC(=O)O)NC(=O)[C@H](Cc2ccccn2)NC(=O)CN(C)C(=O)[C@H](Cc2ccc(-c3ccc(NC(=O)c4cn(CC(=O)O)c5ccccc45)cc3)cc2)NC(=O)[C@H](Cc2ccc(-c3ccc(C(=O)O)cc3)cc2)NC(=O)[C@H](CC2CCCCC2)NC(=O)CSC[C@@H](C(=O)NCC(N)=O)NC1=O` [Example 557] ({CH2CO}-[Cha][Bip(4'-COOH)][Bip(4'-NH)](Indole3carbonyl(1-CH2COOH))[Sar][2Pal]D[dArg(Nω-CH2C6H4-3-CH2Gua)]VPV[Ala(imidazol-2-yl)]LCG-NH2; thioether N-13) gave an IC50 of under 50 nM.

With `CC[C@H](C)[C@@H]1NC(=O)[C@@H](CCCNC(=N)NCc2cccc(O)c2)NC(=O)[C@H](CC(=O)O)NC(=O)[C@H](Cc2cnc[nH]2)NC(=O)CN(C)C(=O)[C@H](Cc2ccc(-c3ccc(NC(=O)c4nn(CC(=O)O)c5ccccc45)cc3)cc2)NC(=O)[C@H](Cc2ccc(-c3ccc(C(=O)O)cc3)cc2)NC(=O)[C@H](CC2CCCCC2)NC(=O)CSC[C@@H](C(=O)NCC(N)=O)NC(=O)[C@H](CC(C)C)NC(=O)[C@H](Cc2ncc[nH]2)NC(=O)[C@H](C(C)C)NC(=O)[C@@H]2Cc3ccccc3CN2C1=O` [Example 561] ({CH2CO}-[Cha][Bip(4'-COOH)][Bip(4'-NH)](Indazole3carbonyl(1-CH2COOH))[Sar]HD[dArg(ω-(3-HO-benzyl))]I[Tic]V[Ala(imidazol-2-yl)]LCG-NH2; thioether N-13), the IC50 is under 50 nM. Same read-out and setting: next, `CC(C)C[C@@H]1NC(=O)[C@H](CCCNC(=N)N)NC(=O)[C@H](C(C)C)NC(=O)[C@@H]2CCCN2C(=O)[C@H](C(C)C)NC(=O)[C@@H](CCCNC(=N)NCc2cccc(O)c2)NC(=O)[C@H](CC(=O)O)NC(=O)[C@@H]2CCCN2C(=O)CN(C)C(=O)[C@H](Cc2ccc(-c3ccc(NC(=O)c4cn(CC(=O)O)c5ccccc45)cc3)cc2)NC(=O)[C@H](Cc2ccc(-c3ccccc3)cc2)NC(=O)[C@H](CN2CCOCC2)NC(=O)CSC[C@@H](C(=O)NCC(N)=O)NC1=O` [Example 565] ({CH2CO}-[Ala(morpholin-4-yl)][Bip][Bip(4'-NH)](Indole3carbonyl(1-CH2COOH))[Sar]PD[dArg(ω-(3-HO-benzyl))]VPVRLCG-NH2; thioether N-13): under 50 nM; `CC(C)C[C@@H]1NC(=O)[C@H](CCCNC(=N)N)NC(=O)[C@H](C(C)C)NC(=O)[C@@H]2CCCN2C(=O)[C@H](C(C)C)NC(=O)[C@@H](CCCNC(=N)NCc2cccc(CNC(=N)N)c2)NC(=O)[C@H](CC(=O)O)NC(=O)[C@@H]2CCCN2C(=O)CN(C)C(=O)[C@H](Cc2ccc(-c3ccc(NC(=O)c4cn(CC(=O)O)c5ccccc45)cc3)cc2)NC(=O)[C@H](Cc2ccc(-c3ccccc3)cc2)NC(=O)[C@H](CN2CCOCC2)NC(=O)CSC[C@@H](C(=O)NCC(N)=O)NC1=O` [Example 569] ({CH2CO}-[Ala(morpholin-4-yl)][Bip][Bip(4'-NH)](Indole3carbonyl(1-CH2COOH))[Sar]PD[dArg(Nω-CH2C6H4-3-CH2Gua)]VPVRLCG-NH2; thioether N-13): under 50 nM.

Still in this test, the particulars now being: HEK-Blue-CD40L cells, NF-kB-driven secreted alkaline phosphatase reporter; TNFα 0.5 ng/ml; 18 h; read-out: TNF induced HEK-Blue assay IC50 value.
For `CC(C)C[C@@H]1NC(=O)[C@H](Cc2ncc[nH]2)NC(=O)[C@H](C(C)C)NC(=O)[C@@H]2CCCN2C(=O)[C@H](C(C)C)NC(=O)[C@@H](CCCNC(=N)NCc2cccc(CNC(=N)N)c2)NC(=O)[C@H](CC(=O)O)NC(=O)[C@H](Cc2ccccn2)NC(=O)CN(C)C(=O)[C@H](Cc2ccc(-c3ccc(NC(=O)c4cccc(CC(=O)O)c4)cc3)cc2)NC(=O)[C@H](Cc2ccc(-c3ccc(C(=O)O)cc3)cc2)NC(=O)[C@H](CC2CCCCC2)NC(=O)CSC[C@@H](C(=O)NCC(N)=O)NC1=O` [Example 558] ({CH2CO}-[Cha][Bip(4'-COOH)][Bip(4'-NHCO-C6H4-3-CH2COOH)][Sar][2Pal]D[dArg(Nω-CH2C6H4-3-CH2Gua)]VPV[Ala(imidazol-2-yl)]LCG-NH2; thioether N-13), the concentration for half-maximal inhibition (IC50) was under 50 nM. The same measure, in the same setting: next, `CC(C)C[C@@H]1NC(=O)[C@H](Cc2ncc[nH]2)NC(=O)[C@H](C(C)C)NC(=O)[C@@H]2CCCN2C(=O)[C@H](C(C)C)NC(=O)[C@@H](CCCNC(=N)NCc2cccc(CNC(=N)N)c2)NC(=O)[C@H](CC(=O)O)NC(=O)[C@H](Cc2ccccn2)NC(=O)CN(C)C(=O)[C@H](Cc2ccc(-c3ccc(NC(=O)c4ccc(CC(=O)O)cc4)cc3)cc2)NC(=O)[C@H](Cc2ccc(-c3ccc(C(=O)O)cc3)cc2)NC(=O)[C@H](CC2CCCCC2)NC(=O)CSC[C@@H](C(=O)NCC(N)=O)NC1=O` [Example 559] ({CH2CO}-[Cha][Bip(4'-COOH)][Bip(4'-NHCO-C6H4-4-CH2COOH)][Sar][2Pal]D[dArg(Nω-CH2C6H4-3-CH2Gua)]VPV[Ala(imidazol-2-yl)]LCG-NH2; thioether N-13): under 50 nM; `CC(C)C[C@@H]1NC(=O)[C@H](Cc2ncc[nH]2)NC(=O)[C@H](C(C)C)NC(=O)[C@@H]2CCCN2C(=O)[C@H](C(C)C)NC(=O)[C@@H](CCCNC(=N)NCc2cccc(CNC(=N)N)c2)NC(=O)[C@H](CC(=O)O)NC(=O)[C@H](Cc2ccccn2)NC(=O)CN(C)C(=O)[C@H](Cc2ccc(-c3ccc(NC(=O)c4cccc(OCC(=O)O)c4)cc3)cc2)NC(=O)[C@H](Cc2ccc(-c3ccc(C(=O)O)cc3)cc2)NC(=O)[C@H](CC2CCCCC2)NC(=O)CSC[C@@H](C(=O)NCC(N)=O)NC1=O` [Example 560] ({CH2CO}-[Cha][Bip(4'-COOH)][Bip(4'-NH)](Benzoyl(3-OCH2COOH))[Sar][2Pal]D[dArg(Nω-CH2C6H4-3-CH2Gua)]VPV[Ala(imidazol-2-yl)]LCG-NH2; thioether N-13): under 50 nM; `CC[C@H](C)[C@@H]1NC(=O)[C@@H](CCCNC(=N)NCc2cccc(O)c2)NC(=O)[C@H](CC(=O)O)NC(=O)[C@H](Cc2cnc[nH]2)NC(=O)CN(C)C(=O)[C@H](Cc2ccc(-c3ccc(NC(=O)c4cccc(CC(=O)O)c4)cc3)cc2)NC(=O)[C@H](Cc2ccc(-c3ccc(C(=O)O)cc3)cc2)NC(=O)[C@H](CC2CCCCC2)NC(=O)CSC[C@@H](C(=O)NCC(N)=O)NC(=O)[C@H](CC(C)C)NC(=O)[C@H](Cc2ncc[nH]2)NC(=O)[C@H](C(C)C)NC(=O)[C@@H]2Cc3ccccc3CN2C1=O` [Example 562] ({CH2CO}-[Cha][Bip(4'-COOH)][Bip(4'-NHCO-C6H4-3-CH2COOH)][Sar]HD[dArg(ω-(3-HO-benzyl))]I[Tic]V[Ala(imidazol-2-yl)]LCG-NH2; thioether N-13): 50 to 200 nM. Regarding `CC[C@H](C)[C@@H]1NC(=O)[C@@H](CCCNC(=N)NCc2cccc(O)c2)NC(=O)[C@H](CC(=O)O)NC(=O)[C@H](Cc2cnc[nH]2)NC(=O)CN(C)C(=O)[C@H](Cc2ccc(-c3ccc(NC(=O)c4ccc(CC(=O)O)cc4)cc3)cc2)NC(=O)[C@H](Cc2ccc(-c3ccc(C(=O)O)cc3)cc2)NC(=O)[C@H](CC2CCCCC2)NC(=O)CSC[C@@H](C(=O)NCC(N)=O)NC(=O)[C@H](CC(C)C)NC(=O)[C@H](Cc2ncc[nH]2)NC(=O)[C@H](C(C)C)NC(=O)[C@@H]2Cc3ccccc3CN2C1=O` [Example 563] ({CH2CO}-[Cha][Bip(4'-COOH)][Bip(4'-NHCO-C6H4-4-CH2COOH)][Sar]HD[dArg(ω-(3-HO-benzyl))]I[Tic]V[Ala(imidazol-2-yl)]LCG-NH2; thioether N-13), the half-inhibitory concentration (IC50) was under 50 nM. On the same count and under the same terms, next, `CC[C@H](C)[C@@H]1NC(=O)[C@@H](CCCNC(=N)NCc2cccc(O)c2)NC(=O)[C@H](CC(=O)O)NC(=O)[C@H](Cc2cnc[nH]2)NC(=O)CN(C)C(=O)[C@H](Cc2ccc(-c3ccc(NC(=O)c4cccc(OCC(=O)O)c4)cc3)cc2)NC(=O)[C@H](Cc2ccc(-c3ccc(C(=O)O)cc3)cc2)NC(=O)[C@H](CC2CCCCC2)NC(=O)CSC[C@@H](C(=O)NCC(N)=O)NC(=O)[C@H](CC(C)C)NC(=O)[C@H](Cc2ncc[nH]2)NC(=O)[C@H](C(C)C)NC(=O)[C@@H]2Cc3ccccc3CN2C1=O` [Example 564] ({CH2CO}-[Cha][Bip(4'-COOH)][Bip(4'-NH)](Benzoyl(3-OCH2COOH))[Sar]HD[dArg(ω-(3-HO-benzyl))]I[Tic]V[Ala(imidazol-2-yl)]LCG-NH2; thioether N-13): under 50 nM.

In the case of `CC(C)C[C@@H]1NC(=O)[C@H](CCCNC(=N)N)NC(=O)[C@H](C(C)C)NC(=O)[C@@H]2CCCN2C(=O)[C@H](C(C)C)NC(=O)[C@@H](CCCNC(=N)NCc2cccc(O)c2)NC(=O)[C@H](CC(=O)O)NC(=O)[C@@H]2CCCN2C(=O)CN(C)C(=O)[C@H](Cc2ccc(-c3ccc(NC(=O)c4cccc(CC(=O)O)c4)cc3)cc2)NC(=O)[C@H](Cc2ccc(-c3ccccc3)cc2)NC(=O)[C@H](CN2CCOCC2)NC(=O)CSC[C@@H](C(=O)NCC(N)=O)NC1=O` [Example 566] ({CH2CO}-[Ala(morpholin-4-yl)][Bip][Bip(4'-NHCO-C6H4-3-CH2COOH)][Sar]PD[dArg(ω-(3-HO-benzyl))]VPVRLCG-NH2; thioether N-13), the IC50 was under 50 nM.

For the compound `CC(C)C[C@@H]1NC(=O)[C@H](CCCNC(=N)N)NC(=O)[C@H](C(C)C)NC(=O)[C@@H]2CCCN2C(=O)[C@H](C(C)C)NC(=O)[C@@H](CCCNC(=N)NCc2cccc(O)c2)NC(=O)[C@H](CC(=O)O)NC(=O)[C@@H]2CCCN2C(=O)CN(C)C(=O)[C@H](Cc2ccc(-c3ccc(NC(=O)c4ccc(CC(=O)O)cc4)cc3)cc2)NC(=O)[C@H](Cc2ccc(-c3ccccc3)cc2)NC(=O)[C@H](CN2CCOCC2)NC(=O)CSC[C@@H](C(=O)NCC(N)=O)NC1=O` [Example 567] ({CH2CO}-[Ala(morpholin-4-yl)][Bip][Bip(4'-NHCO-C6H4-4-CH2COOH)][Sar]PD[dArg(ω-(3-HO-benzyl))]VPVRLCG-NH2; thioether N-13), the 50% inhibitory concentration (IC50) was under 50 nM. The same measure, in the same setting: next, `CC(C)C[C@@H]1NC(=O)[C@H](CCCNC(=N)N)NC(=O)[C@H](C(C)C)NC(=O)[C@@H]2CCCN2C(=O)[C@H](C(C)C)NC(=O)[C@@H](CCCNC(=N)NCc2cccc(O)c2)NC(=O)[C@H](CC(=O)O)NC(=O)[C@@H]2CCCN2C(=O)CN(C)C(=O)[C@H](Cc2ccc(-c3ccc(NC(=O)c4cccc(OCC(=O)O)c4)cc3)cc2)NC(=O)[C@H](Cc2ccc(-c3ccccc3)cc2)NC(=O)[C@H](CN2CCOCC2)NC(=O)CSC[C@@H](C(=O)NCC(N)=O)NC1=O` [Example 568] ({CH2CO}-[Ala(morpholin-4-yl)][Bip][Bip(4'-NH)](Benzoyl(3-OCH2COOH))[Sar]PD[dArg(ω-(3-HO-benzyl))]VPVRLCG-NH2; thioether N-13): under 50 nM.
